Data taken from US20090075949A1, “Use of dipyridamole in combination with antithrombotics for treatment and prevention of thromboembolic diseases” (priority 2004, published 2009).

How the values were obtained:
[1] = ESPS-2; compared with low-dose aspirin / aspirin alone; cited from earlier work
[2] = test system: activated platelets; experiment: Annexin V binding after incubation of cells with DIP; type: cell-based
[3] = arterial circulation of the brain, rabbit model; cited from earlier work
[4] = local formation of fibrin in experimental animals after angioplasty; type: in vivo

Q: Which “reduction of stroke risk” value [1] does the source give for `OCCN(CCO)c1nc(N2CCCCC2)c2nc(N(CCO)CCO)nc(N3CCCCC3)c2n1` [dipyridamole, 2,6-bis(diethanolamino)-4,8-dipiperidino-pyrimido[5,4-d]pyrimidine] here?
A: as effective as low-dose aspirin

Q: What about the “binding of Annexin V to the surface of activated platelets” value ([2]; activated platelets) of the same compound?
A: reduce the binding of Annexin V

Q: What about the “Annexin V binding sites” value ([2]; incubation of cells, compared to pre-incubation, patients with anti-platelet therapy resistance (ASA or clopidogrel)) of the same compound?
A: significant reduction

Q: And the thrombus formation [3]?
A: reduce thrombus formation

Q: What about the “inhibition of fibrin formation versus full dose heparin” value ([4]; experimental animals after angioplasty) of the same compound?
A: exceeds the level of inhibition by full dose anticoagulant treatment with heparin

Q: And the “local formation of fibrin” value ([4]; pretreatment, arterial tree, high flow rate)?
A: reduces the local formation of fibrin significantly
